The record followed here is patent US8232278B2 (Gilead Sciences, Inc., priority 2005, dated 2012).

Like-named read-outs stand apart in the source and are kept apart here.

The subject of data set [1] is wild-type HIV-1 strain IIIB. The data set is described as follows: HIV-1 assay (XTT, HIV-induced cytopathic effect in MT-2 cells). It counts as cell-based. The following applies: read-out: MT2 HIV % inhib. @ 5 μM. On the procedure:
This assay is based on the quantification of the HIV-induced cytopathic effect by a calorimetric detection of the viability of virus-infected cells in the presence or absence of tested inhibitors. The HIV-induced cell death was determined by using as a metabolic substrate 2,3-bis(2-methoxy-4-nitro-5-sulfophenyl)-2H-tetrazolium-5-carboxanilide (hereinafter referred as XTT) which was converted only by live cells into a product with specific absorption characteristics, as described by Weislow et al., J. Natl. Cancer Inst. (1989) 81:577.
The assay protocol for the determination of EC50 includes the following steps: • 1. MT-2 cells were maintained in RPMI-1640 medium supplemented with 10% fetal bovine serum, glutamine and antibiotics. • 2. Cells were infected by the wild-type HIV-1 strain IIIB (ABI, Columbia, Md.) for 3 hours at 37° C. using a multiplicity of infection (MOI) of 0.01. • 3. Prepare a set of solutions containing various concentrations of the tested inhibitor by making 5-fold serial dilutions in 96-well plate (100 μl/well). Alternatively, test single drug concentration (100 μl/well). Distribute the infected cells into the 96-well plate containing the inhibitors (20,000 cells in 100 μl/well). Include the following control samples, untreated infected cells (100% cell death) and control drug-treated infected cells (full protection). • 4. Incubate the cells for 5 days at 37° C. • 5. Prepare XTT solution (6 mL per assay plate) at a concentration of 2 mg/mL in a phosphate-buffered saline at pH 7.4. Heat the solution in water-bath for 10 minutes at 56° C. Add 50 μl of N-methylphenazonium methasulfate (5 μg/mL) per 6 mL of XTT solution. • 6. Remove 100 μl media from each well on the assay plate. • 7. Add 100 μl of the XTT substrate solution per well and incubate at 37° C. for 45 to 60 minutes in a CO2 incubator. • 8. Add 20 μl of 2% Triton X-100 per well to inactivate the virus. • 9. Read the absorbance at 450 nm with subtracting off the background absorbance at 650 nm. • 10. Plot the percentage absorbance relative to untreated control and estimate the EC50 value as drug concentration resulting in a 50% protection of the infected cells. Alternatively, calculate the percentage of inhibition for a fixed concentration, relative to the full protection with the control drug.
This assay has been performed on a set of compounds of the invention, and results are reported in table 8 below, also indicating the nature of substituents being present in positions 4 and 6 of the pyrido[3,2-d]pyrimidine derivatives of the invention (all being amino-substituted in position 2).
In general terms: Formazan colour is commonly taken as a measure of viable cells.

Data set [2] can be described thus: CC50 assay in Huh-7 HCV replicon cells (CellTiter-Glo). It counts as cell-based, human. The following applies: human, 50% cytostatic concentration. An outline of the steps: (§1)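 Huh-7 cells carrying an HCV replicon, 6000 per well, were exposed to 3-fold serial compound dilutions (0.5% DMSO final where DMSO was used) for 3 days at 37 °C. EC50 was read by luciferase after cell lysis; CC50 was taken as 50% inhibition of cell growth.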

A further data set has as its system HCV replicon. The data set is described as follows: Anti-HCV assay / replicon assay (EC50, luciferase read-out). It counts as cell-based, hepatitis C virus (HCV). The following applies: for CC50/EC50: CC50/EC50 ratio (selectivity index); for EC50: Hepatitis C virus. In a few lines:
as §1

The subject of the next data set is Huh-7 HCV replicon cells. In words: CC50 assay in Huh-7 HCV replicon cells (CellTiter-Glo). It counts as cell-based, human. To be noted: 3 days, 50% cytostatic concentration. In a few lines:
as §1

[3] abbreviates: Human immunodeficiency virus 1, MT2, 120 h, 5 μM, MT-2 cells infected with HIV-1 IIIB, 5 days, XTT.
[4] abbreviates: 72 h, human hepatoma Huh-7 cell line harbouring a HCV replicon, 3 days, luciferase luminescence, read-out: EC50.

What is called CC50 is the concentration that lowers cell viability or growth by half. A high value points to lower toxicity to the cells. What is called EC50 is the concentration giving half of the maximal effect. For the molecule `Nc1nc(OCc2ccccc2)c2nc(-c3ccc(F)cc3)ccc2n1` [Example 211, 2-amino-4-benzyloxy-6-(p-fluorophenyl)-pyrido[3,2-d]pyrimidine], the inhibition at 5 µM in data set [1] (setting [3]) amounted to 17%. The cytotoxic concentration (CC50) at 3 days in data set [2] is 37.5 µM. In the data set on HCV replicon, the CC50/EC50 amounted to 179. In addition, in the data set on HCV replicon (setting [4]), the EC50 was determined as 0.21 µM.

On to `CC(=O)N1CCN(c2nc(N)nc3ccc(-c4ccc(F)cc4)nc23)CC1` [Example 320, 2-amino-4-(N-acetylpiperazino)-6-(4-fluorophenyl)-pyrido[3,2-d]pyrimidine], for which the inhibition at 5 µM in data set [1] (setting [3]) was found to be 12%. In data set [2], the midpoint of cytotoxicity, the CC50 at 3 days, lay at 19.9 µM. For the same molecule, in the data set on HCV replicon, the CC50/EC50 is reported as 87. Besides, the EC50 in the data set on HCV replicon (setting [4]) was determined as 0.23 µM.

For `Nc1nc(OCc2ccccc2)c2nc(-c3cccc(F)c3)ccc2n1` [Example 210, 2-amino-4-benzyloxy-6-(m-fluorophenyl)-pyrido[3,2-d]pyrimidine], the inhibition at 5 µM in data set [1] (Human immunodeficiency virus 1, IIIB, MT2, 120 h) was found to be 5%. The molecule also gave a CC50 at 3 days in data set [2] of 18.8 µM. Also, the CC50/EC50 in the data set on HCV replicon was determined as 85. Moreover, the EC50 in the data set on HCV replicon (Huh-7, 72 h) turned out to be 0.22 µM.

The melting point is the temperature of the solid-liquid transition. The molecule `CCOCCOc1nc(N)nc2ccc(-c3ccc(F)cc3)nc12` [Example 304, 2-amino-4-(2-ethoxyethoxy)-6-(4-fluorophenyl)-pyrido[3,2-d]pyrimidine] yielded a melting point of 192 °C. Also, the inhibition at 5 µM in data set [1] (setting [3]) worked out at 9%. Besides, half-maximal cytotoxicity in data set [2] (CC50 at 3 days) was put at 37.5 µM. Moreover, in the data set with HCV replicon, the CC50/EC50 is recorded as 852. The EC50 in the data set on HCV replicon (setting [4]) was 0.044 µM.

`CCOCCOc1nc(N)nc2ccc(-c3ccccc3F)nc12` [Example 302, 2-amino-4-(2-ethoxyethoxy)-6-(2-fluorophenyl)-pyrido[3,2-d]pyrimidine] returned a melting point of 163 °C.

`COCCOc1nc(N)nc2ccc(-c3ccc(F)cc3)nc12` [Example 305, 2-amino-4-(2-methoxyethoxy)-6-(4-fluorophenyl)-pyrido[3,2-d]pyrimidine]: the melting point was 204 °C. This molecule displayed a CC50 with Huh-7 HCV replicon cells of 50.1 µM. Besides, the CC50/EC50 in the data set with HCV replicon came to 2863. Further, the EC50 in the data set with HCV replicon (setting [4]) came to 0.018 µM.

`CCOc1nc(N)nc2ccc(-c3ccc(NC(C)=O)cc3)nc12` [Example 353, 2-amino-4-ethoxy-6-(p-acetamidophenyl)pyrido(3,2-d)pyrimidine]: the inhibition at 5 µM in data set [1] (setting [3]) stood at 4%. The same molecule displayed a CC50 at 3 days in data set [2] of 25.1 µM. Further, the CC50/EC50 in the data set on HCV replicon was 56. Moreover, the EC50 with HCV replicon (setting [4]) was found to be 0.45 µM.

In the case of `CCOCCOc1nc(N)nc2ccc(-c3cccc(F)c3)nc12` [Example 303, 2-amino-4-(2-ethoxyethoxy)-6-(3-fluorophenyl)-pyrido[3,2-d]pyrimidine], the melting point was determined as 165 °C. The inhibition at 5 µM in data set [1] (setting [3]) was 8%. Besides, the CC50 in the data set with Huh-7 HCV replicon cells turned out to be 50.1 µM. For the same molecule, in the data set with HCV replicon, the CC50/EC50 was determined as 89. The EC50 in the data set with HCV replicon (setting [4]) was determined as 0.56 µM.
